Data from patent US7745641B2, “Nitrogen-containing heterocyclic compound” (Kyowa Hakko Kirin Co., Ltd., priority 2005, dated 2010).

Tests used:
Aurora = Aurora inhibitory activity using Western blotting method (phosphorylation of histone H3 Ser10); assay type: cell-based, human; conditions: 10 μmol/L, 30 minutes, HCT116 cells accumulated in M phase with Nocodazole
From the text: It is known that Aurora phosphorylates Ser10 of histone H3 in the G2/M phase during the cell cycle [Molecular and Cellular Biology, Vol. 22, p. 874 (2002)]. Consequently, the inhibition of phosphorylation of histone H3 Ser10 in cells was detected by a Western blotting method using human colon cancer cell line HCT116 cells accumulated in the M phase. McCoy's 5A culture medium (GIBCO, Catalogue No. 16600-082) containing 10% bovine fetus serum (GIBCO, Catalogue No. 10099-141) was used for the cultivation of the cells. The HCT116 cells were inoculated and then treated with Nocodazole (Sigma Corporation, Catalogue No. M-1404) so that the cell cycle was accumulated to the M phase. A test compound (final concentration: 10 μmol/L) was added thereto, and the cells were incubated at 37° C. for 30 minutes. The cells were then recovered and washed with a phosphate buffered saline (PBS) once. The cells were suspended in a cell-solubilizing solution (50 mmol/L 2-[4-(2-hydroxyethyl)-1-piperazinyl]ethanesulfonic acid (HEPES) (pH 7.4), 150 mmol/L NaCl, 1 mmol/L ethylenediamine-N,N,N′,N′-tetraacetic acid disodium salt dihydrate (EDTA), 2.5 mmol/L ethylene glycol bis(2-aminoethylether)-N,N,N′,N′-tetraacetic acid (EGTA), 0.1% Tween-20 (Bio-Rad Laboratories Inc., Catalogue No. 170-6531), 10% β-glycerophosphate, 1 mmol/L NaF, 0.1 mmol/L Na3VO4, 1 mmol/L Pefabloc SC (Roche Diagnostics K.K., Catalogue No. 1 429 868), and Complete EDTA-free (Roche Diagnostics K.K., Catalogue No. 1 873 580)}, and the suspension was frozen and thawed. Subsequently, the supernatant obtained by centrifugal separation was used as a cell extraction solution. SDS-PAGE was performed using a 12.5% polyacrylamide gel under the condition that the amount of protein per sample was 30 μg in accordance with the method used by Laemmli et al. The protein was transferred onto a PVDF membrane (Millipore Corporation, Catalogue No. IPVH304F0) by a semi-dry method. The membrane was allowed to react with anti-phosphorylated histone H3 Ser10 antibody (Upstate Inc., Catalogue No. 06-570) used as a primary antibody, and an HRP-labeled anti-rabbit IgG antibody (Amersham biosciences, Catalogue No. NA934V) used as a secondary antibody. Subsequently, […] was detected using a SuperSignal West Pico chemiluminescence substrate (Pierce, Catalogue No. 34077).

Flt-3 = target: T1, Flt-3 (Homo sapiens, UniProt P36888); experiment: Flt-3 inhibitory activity, time-resolved fluoroimmunoassay; assay type: biochemical; conditions: 10 μmol/L test compound
T1 construct: His tag; purchased Upstate Inc. 14-500
T1 sequence (P36888 564-993 limits assumed): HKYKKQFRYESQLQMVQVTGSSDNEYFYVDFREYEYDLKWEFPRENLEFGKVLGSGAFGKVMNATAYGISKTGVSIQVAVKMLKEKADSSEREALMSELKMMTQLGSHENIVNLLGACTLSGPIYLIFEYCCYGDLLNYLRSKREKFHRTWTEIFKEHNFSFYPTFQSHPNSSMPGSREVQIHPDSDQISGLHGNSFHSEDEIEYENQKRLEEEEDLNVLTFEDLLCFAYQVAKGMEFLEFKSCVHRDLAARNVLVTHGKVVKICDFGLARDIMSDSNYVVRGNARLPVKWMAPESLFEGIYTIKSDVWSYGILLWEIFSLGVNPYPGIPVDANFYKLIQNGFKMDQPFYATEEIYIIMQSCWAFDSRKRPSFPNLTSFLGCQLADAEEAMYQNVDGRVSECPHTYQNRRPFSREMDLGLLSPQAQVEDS
Experimental: Flt-3 inhibitory activity was determined by a method described below.
Biotinylated polyglutamic acid-tyrosine peptide (Nihon Schering K.K., Catalogue No. 61GT0BAA) used as a substrate was immobilized on a 96-well plate (FIA-PLATE BLACK 96 well FALT-BOTTOM HIGH BINDING, Greiner Bio-one Co., Ltd., Catalogue No. 655077) coated with NeutroAvidin (Pierce, Catalogue No. 31000) and was then blocked with 0.25% gelatin to yield a plate for the determination of kinase reaction. A solution containing, at final concentrations, 8 μg/L His-tagged protein-fused Flt-3 (Upstate Inc., Catalogue No. 14-500), 20 mmol/L Tris-Cl (pH 7.5), 0.04% 2-mercaptoethanol, 0.04 mmol/L Na3VO4, 20 mmol/L MgCl2, 5 mmol/L MnCl2, 10 μmol/L ATP, 0.1% BSA, 0.1% DMSO, and […] test compound was prepared. Subsequently, 50 μL of the solution was placed in each of the wells of the plate for the determination of kinase reaction, followed by enzymatic reaction at 24° C. for 60 minutes. The plate was washed with TBS-T [10 mmol/L Tris-Cl (pH 7.5), 150 mmol/L NaCl, and 0.05% Tween 20 (Bio-Rad Laboratories Inc., Catalogue No. 170-6531)] four times, and allowed to react with europium-labeled anti-phosphotyrosine antibody (PerkinElmer Inc. Catalogue No. AD0160) at room temperature for 60 minutes. The plate was further washed with TBS-T four times. Subsequently, time-resolved fluoroimmunoassay was performed (excitation wavelength: 340 nm, measuring wavelength: 615 nm). The relative activity (%) of a well to which the enzyme and the test compound were added was calculated using the value of a well to which the test compound was not added being 100% and the value of a well to which the enzyme and the test compound were not added being 0%. The Flt-3 inhibitory activity (%) of the test compound was determined by subtracting the relative activity (%) from 100.

human FGFR3 = target: T2, human FGFR3 (Homo sapiens, UniProt P22607); experiment: Fibroblast growth factor receptor 3 (FGFR3) inhibitory activity, time-resolved fluoroimmunoassay; assay type: biochemical; conditions: 10 μmol/L test compound
T2 construct: the intracellular domain (448-759 amino acids) of human FGFR3; made in house; host or cells: insect cells (baculovirus)
Experimental: In order to determine FGFR3 inhibitory activity, the following method was employed. FGFR3 was prepared by allowing baculovirus that expresses a protein in which glutathione S-transferase (GST) was fused to the N-terminal of the intracellular domain (448-759 amino acids) of human FGFR3 to infect insect cells. Biotinylated polyglutamic acid-tyrosine peptide (Nihon Schering K.K., Catalogue No. 61GT0BAA) used as a substrate was immobilized on a 96-well plate coated with NeutroAvidin (Pierce, Catalogue No. 31000) and was then blocked with 0.25% gelatin to yield a plate for the determination of kinase reaction A solution containing, at final concentrations, 8 μg/L GST-fused FGFR3 protein, 20 mmol/L Tris-Cl (pH 7.5), 0.04% 2-mercaptoethanol, 0.04 mmol/L Na3VO4, 20 mmol/L MgCl2, 5 mmol/L MnCl2, 10 mmol/L ATP, 0.1% bovine serum albumin (BSA; Sigma Corporation, Catalogue No. A4503), 0.1% dimethyl sulfoxide (DMSO), and 10 μmol/L test compound was prepared. Subsequently, 50 μL of the solution was placed in each of the wells of the plate for the determination of kinase reaction, followed by enzymatic reaction at 24° C. for 60 minutes. The plate was washed with TBS-T [10 mM Tris-Cl (pH 7.5), 150 mmol/L NaCl, and 0.05% Tween 20 (Bio-Rad Laboratories Inc., Catalogue No. 170-6531)] four times, and allowed to react with europium-labeled anti-phosphotyrosine antibody (PerkinElmer Inc. Catalogue No. AD0160) at room temperature for 60 minutes. The plate was further washed with TBS-T four times. Subsequently, DELFIA. Enhancement Solution (PerkinElmer Inc. Catalogue No. 1244-105) was added to the plate, and time-resolved fluoroimmunoassay was performed (excitation wavelength: 340 nm, measuring wavelength: 615 nm). The relative activity (%) of a well in which the test compound was added was calculated using the value of a well containing the enzyme and 0.1% DMSO being 100% and the value of a well not containing the enzyme being 0%. The FGFR3 inhibitory activity (%) of the test compound was determined by subtracting the relative activity (%) from 100.

HCT116 cells = experiment: Evaluation of Aurora inhibitory activity by analysis of nuclear morphology (enlarged lobed nuclei); assay type: cell-based, human; conditions: concentration in the range of 0.1 to 1 μmol/L, 17 hours contact; optimal concentration different in each compound
Experimental: 281 (2003)]. Consequently, enlarged lobed nuclei-inducibility of test compounds for HCT116 cells was evaluated. McCoy's 5A culture medium (GIBCO, Catalogue No. 16600-082) containing 10% bovine fetus serum (GIBCO, Catalogue No. 10099-141) was used for the cultivation of the cells. HCT116 cells were inoculated and, 24 hours later, each test compound was added thereto.

[1] = test system: human-tumor-transplant mouse models; conditions: cited from earlier work
[2] = test system: human-tumor-transplant rat models; conditions: cited from earlier work

T2 sequence (P22607 448-759): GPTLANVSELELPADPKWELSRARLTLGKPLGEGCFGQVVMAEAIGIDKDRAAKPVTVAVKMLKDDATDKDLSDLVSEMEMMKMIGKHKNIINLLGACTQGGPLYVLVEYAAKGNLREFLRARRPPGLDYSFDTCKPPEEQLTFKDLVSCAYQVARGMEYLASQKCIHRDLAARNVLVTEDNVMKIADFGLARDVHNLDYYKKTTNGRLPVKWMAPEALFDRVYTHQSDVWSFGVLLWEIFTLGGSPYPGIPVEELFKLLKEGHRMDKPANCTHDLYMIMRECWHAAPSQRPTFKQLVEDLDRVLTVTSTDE

Row | melting point [°C] | inhibition at 10 µM (Flt-3) [%] | inhibition at 10 µM (human FGFR3) [%] | Compound | suppression of the phosphorylation of histone H3 Ser10 in HCT116 cells (Aurora) | ability of inducing enlarged lobed nuclei for HCT116 cells (HCT116 cells) | antitumor activity [1] | antitumor activity [2]
1 | 197 to 199 | ≥ 50 | ≥ 50 | COCCN(C)Cc1ccc2[nH]c(-c3cc(OC)c(OS(C)(=O)=O)c4c3C(=O)NC4)cc2c1 [Compound 455, 4-Methanesulfonyloxy-5-methoxy-7-{1H-5-[N-(2-methoxyethyl)methylaminomethyl]indol-2-yl}isoindolinone] | almost completely suppressed | show ability of inducing enlarged lobed nuclei |  | 
2 |  |  |  | Nc1nc(Nc2ccc(S(N)(=O)=O)cc2)nn1C(=O)c1c(F)cccc1F [JNJ-7706621] |  |  | exhibits an antitumor activity | 
3 |  |  |  | Cc1cc(Nc2cc(N3CCN(C)CC3)nc(Sc3ccc(NC(=O)C4CC4)cc3)n2)n[nH]1 [VX-680] |  |  | exhibits an antitumor activity | exhibits an antitumor activity
